{
  "source": "paper PMC4667271",
  "about": "“Discovery of a Novel Inhibitor of the Protein Tyrosine Phosphatase Shp2” (Scientific Reports, 2015)",
  "key": {"[1]": {"system": "PMA-induced ERK1/2 phosphorylation", "assay": "PMA-induced ERK1/2 activation, Western blot", "conditions": "pretreated 24 h, 100 nM PMA 5 min; even at highest concentration tested", "experimental": "Cells were pretreated with increasing concentrations of Fumos for 24 h, and then stimulated with 100 nM PMA for 5 min. DMSO treatment as control. ERK1/2 activation was analyzed by Western-Blot with antibodies to phosphorylated ERK1/2 (pERK) or ERK1/2. GAPDH is used as a loading control for Western Blot. The control treatment is not induced by PMA.\nCells were seeded in a culture bottle at 37 °C, under 5% CO2 and 95% air. […] Then cells were collected and dissolved in the lysis buffer (50 mM Hepes-NaOH, 100 mM NaCl, 0.5%NP-40, 2.5 mM EDTA, 10% glycerol, 1 mM DTT, 1 mM PMSF, 0.7 μl/ml pepstatin, 0.5 μg/ml leupetin, 2 μg/ml aprotinin). Cell lysates were centrifuged at 4 °C with the speed of 10,000 g for 15 min. After centrifugation, the supernatant was collected. 30 μg proteins were loaded on SDS-PAGE. After electrophoresis, proteins were transferred onto PVDF meber, and immunobloted with specific antibodies, and visualized using ECL reagent. Each membrane was stripped and reprobed with anti-GAPDH antibody to ensure equal protein loading. The bands were densitometrically scanned and analyzed using a BIO-RAD Gel Analysis System."}, "[2]": {"target": "HePTP (Homo sapiens, UniProt P35236)", "sequence (P35236 97-350 limits assumed)": "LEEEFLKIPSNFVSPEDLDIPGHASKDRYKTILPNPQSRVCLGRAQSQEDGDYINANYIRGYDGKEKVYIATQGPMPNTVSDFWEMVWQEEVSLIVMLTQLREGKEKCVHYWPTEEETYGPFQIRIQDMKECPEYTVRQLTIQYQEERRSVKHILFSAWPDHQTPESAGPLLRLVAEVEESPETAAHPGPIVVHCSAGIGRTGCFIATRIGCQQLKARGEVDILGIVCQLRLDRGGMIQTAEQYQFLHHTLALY", "assay": "in vitro PTP assay (pNPP), HePTP", "format": "biochemical", "method": "(§1) Plasmids for expression of His-tag fusion proteins of human PTP were constructed in PET-28a by PCR subcloning techniques. The constructions contain only the PTP domain except Full-length Shp2. Full-length Shp2 containing Tyr279-to-Ala mutant was generated by PCR-based mutagenesis. All constructs were verified by DNA sequencing. PTP-His fusion proteins were expressed in Escherichia coli BL21 and lysed in the buffer (50 mM NaH2PO4, 300 mM NaCl, 250 mM imidazole, 1 mM dithiothreitol plus 5% glycerol), purified with Ni-NTA Magnetic Agarose Beads (Qiagen). The His-tag recombinant purification protocol was carried out according to the purification under native conditions of the QIAexpress System.\n(§2) The assay was set in wells of 96-well plate with a final volume of 100 μl of reaction mixture containing 10 mM of NaAc-HAc, 1 mM of ethylene diamine tetraacetic acid, 1 mM of DL-dithiothreitol and 2% of dimethyl sulfoxide, pH 5.5. Activity of the enzyme was assayed by incubating recombinant PTP protein or mutant PTP with various concentrations of Fumos in the mixture at 37 °C for 30 min. Absorbance at 405 nm was detected immediately after addition of varied concentrations of substrate, p-nitrophenyl phosphate (pNPP) to each corresponding well."}, "[3]": {"target": "T1, full-length Shp2 (Shp2 FL) (Homo sapiens, UniProt Q06124)", "T1 sequence (Q06124 1-593)": "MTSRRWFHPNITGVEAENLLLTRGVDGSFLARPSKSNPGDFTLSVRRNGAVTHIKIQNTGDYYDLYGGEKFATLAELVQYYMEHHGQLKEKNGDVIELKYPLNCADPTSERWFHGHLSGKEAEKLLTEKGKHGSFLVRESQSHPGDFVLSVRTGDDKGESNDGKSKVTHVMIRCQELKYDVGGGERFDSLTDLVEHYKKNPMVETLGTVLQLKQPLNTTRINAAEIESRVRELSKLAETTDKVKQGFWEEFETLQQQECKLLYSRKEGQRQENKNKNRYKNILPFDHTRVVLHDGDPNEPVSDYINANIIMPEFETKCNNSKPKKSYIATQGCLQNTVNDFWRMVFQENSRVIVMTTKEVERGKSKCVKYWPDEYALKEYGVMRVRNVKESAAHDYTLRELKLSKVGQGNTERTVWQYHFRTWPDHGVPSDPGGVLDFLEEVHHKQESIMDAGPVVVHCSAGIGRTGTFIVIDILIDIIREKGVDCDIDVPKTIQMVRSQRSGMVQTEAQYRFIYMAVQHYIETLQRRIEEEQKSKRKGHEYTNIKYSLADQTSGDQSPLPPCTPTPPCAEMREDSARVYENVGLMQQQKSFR", "assay": "in vitro PTP assay (pNPP), full-length Shp2", "format": "biochemical", "method": "as §1, §2"}},
  "data": [
    {"smiles": "CC[C@@H](C)C[C@@H](C)/C=C(C)/C=C/C=C/C=C(\\C)C(=O)c1c(O)c(-c2ccc(O)cc2)cn(O)c1=O", "note": "[Fumos, Fumosorinone]", "values": [
      {"measurement": "PMA-induced ERK1/2 phosphorylation", "setting": "[1]", "result": "did not inhibit"},
      {"measurement": "IC50", "setting": "[2]; HePTP PTP domain", "result": "> 100", "unit": "µM"},
      {"measurement": "IC50 selective", "setting": "[2]; HePTP relative to Shp2 PTP domain", "result": ">16"},
      {"measurement": "IC50 selective", "setting": "[3]; Shp2 FL relative to Shp2 PTP domain", "result": 4},
      {"measurement": "IC50", "setting": "[3]; full-length Shp2 (Shp2 FL)", "result": "26.5 ± 0.37", "unit": "µM"}
    ]}
  ]
}
